In PMC4425356, “An Extended Surface Loop on Toxoplasma gondii Apical Membrane Antigen 1 (AMA1) Governs Ligand Binding Selectivity” (PLoS ONE, 2015):
Entries after “also recorded” stand apart in the source; their conditions may differ. Where two headings read alike, the source gives them in different places. Ends that are not written are not given here.

Assays:
[1] = molecular target: TgAMA1ΔDIIloop (TgAMA1 with the mobile portion of the DII loop replaced with a short Gly-Ser linker) (Toxoplasma gondii) (UniProt B6KAM0); test: ITC; TgAMA1 or TgAMA1ΔDIIloop in the sample cell (10 to 16 μM for nanomolar affinity, 35 to 75 μM for micromolar affinity), TRX-fused peptides (110 to 180 μM or 360 to 1180 μM) added in 17 injections of 2 μL; 25 °C; HBS (20 mM HEPES pH 7.5, 150 mM NaCl); one-site model
[2] = molecular target: Toxoplasma gondii apical membrane antigen 1 (TgAMA1) (Toxoplasma gondii); test: as above
TgAMA1 = test: Isothermal titration calorimetry of TRX-fused RON2D3 peptides titrated into TgAMA1; format: binding, Toxoplasma gondii; conditions: ITC, 25 °C; for -TΔS / ΔG / Kd / Molar Ratio (RON2/AMA1) / ΔH: TgAMA1, TRX-fused peptides; for Molar Ratio (RON2/AMA1) / ΔH: representative of at least two
Experimental: (§1) For ITC experiments, TgAMA1 was produced and purified as previously reported. Thioredoxin fusions of TgRON2D3, TgRON2L1D3, TgRON2L2D3, EtRON2D3 and PfRON2D3 were produced in E. coli BL21 cells and purified by nickel-affinity and SEC.
(§2) Purified TgAMA1, TgAMA1ΔDIIloop, and TRX fusions of TgRON2D3, TgRON2L1D3 TgRON2L2D3, EtRON2D3, and PfRON2D3 were dialyzed against HBS at 4 °C. All ITC experiments were carried out at 25 °C on a MicroCal iTC200 instrument (GE Healthcare). […] Data were processed using Origin software (MicroCal) and the dissociation constants (Kd) were determined using a one-site model. Values are derived from a single experiment, but are representative of at least two independent experiments.

TgAMA1ΔDIIloop [3] = test: Isothermal titration calorimetry of TRX-fused RON2D3 peptides titrated into TgAMA1ΔDIIloop (DII loop replaced by Gly-Ser linker); format: binding, Toxoplasma gondii; conditions: for binding to TgAMA1ΔDIIloop (in words) / Kd / -TΔS / ΔG / Molar Ratio (RON2/AMA1) / ΔH: ITC, 25 °C; for binding to TgAMA1ΔDIIloop (in words) / -TΔS / ΔG / Molar Ratio (RON2/AMA1) / ΔH: HBS pH 7.5; for Kd / -TΔS / ΔG / Molar Ratio (RON2/AMA1) / ΔH: TgAMA1ΔDIIloop, TRX-fused peptides; for Kd: HBS (20 mM HEPES pH 7.5, 150 mM NaCl), one-site model, representative of at least two independent experiments; for Kd / Molar Ratio (RON2/AMA1) / ΔH: single experiment; for Molar Ratio (RON2/AMA1) / ΔH: representative of at least two
Text: A sequence encoding the mature ectoplasmic region of TgAMA1 (amino acids 64 to 484, TGME49_255260 [24]) with the twenty residues of the DII loop disordered in the TgAMA1-TgRON2D3 co-structure replaced by a seven residue Gly-Ser linker (TgAMA1ΔDIIloop) was synthesized and subcloned into a modified pAcGP67b vector (Pharmingen) with a C-terminal thrombin cleavage site and hexahistidine tag. TgAMA1ΔDIIloop encoding virus for insect cell protein production was generated and amplified using established protocols. Following a 65 hr infection the supernatant was harvested, concentrated, and TgAMA1ΔDIIloop was purified by nickel batch binding as previously described. The hexahistidine tag was removed by thrombin cleavage and the protein was further purified by size exclusion chromatography (SEC) (Superdex 16/60 75) in HEPES buffered saline (HBS: 20 mM HEPES pH 7.5, 150 mM NaCl).
as §1, §2

TgAMA1ΔDIIloop [4] = test: Native gel electrophoresis of TgAMA1ΔDIIloop co-purified with EtRON2D3; format: binding, Toxoplasma gondii; conditions: 8–25% gradient native gel, HBS, Coomassie Brilliant Blue; sample co-purified with EtRON2D3
Text: A sequence encoding a portion of EtRON2D3 (amino acids 1262 to 1297, ETH_00012760) was synthesized and subcloned into a modified pET32a vector (Novagen) incorporating N-terminal hexahistidine and thioredoxin (TRX) tags with a thrombin cleavage site. The fusion protein was produced in E. coli BL21 cells. For crystallization, EtRON2D3-TRX was cleaved to remove the fusion tags and co-purified with TgAMA1ΔDIIloop by SEC in HBS followed by anion exchange chromatography using a Source 30Q column (20 mM HEPES pH 8.0, 10 mM NaCl; elution gradient with 20 mM HEPES pH 8.0, 1 M NaCl) to remove residual TRX tag.
Purified TgAMA1ΔDIIloop and co-purified TgAMA1ΔDIIloop-EtRON2D3 protein samples in HBS were run on an 8–25% gradient native gel using the PhastGel system (GE Healthcare), and protein bands were visualized with Coomassie Brilliant Blue staining.

TgAMA1 or TgAMA1ΔDIIloop = test: Isothermal titration calorimetry, TRX negative control; format: binding, Toxoplasma gondii; conditions: ITC, 25 °C, HBS pH 7.5
Experimental: as §2

For “EtRON2D3-TRX (Eimeria tenella RON2 domain 3 peptide, thioredoxin fusion) (from UniProt U6KQJ2 1262-1297)”, the Kd [1] was under 0.008 µM and the Kd [2] was 2.2 µM.
In the case of “EtRON2D3: a portion of EtRON2D3 (amino acids 1262 to 1297, ETH_00012760), Eimeria tenella RON2 peptide (thioredoxin-DITQHLNDSGLGPAVECLENLVVGPVCPAAVVAPAV; not fully specified (bridges); also: disulfide partially formed)”, the “binding to TgAMA1 (in words)” value (TgAMA1; HBS pH 7.5) is reported as “bound both TgRON2D3 and EtRON2D3 but only the former with high affinity”, the “binding to TgAMA1 (in words)” value (TgAMA1; HBS pH 7.5, listed as EtRON2) is reported as “showed only weak binding to TgAMA1” and the “-TΔS” value (TgAMA1; HBS pH 7.5) is reported as -3.0 kcal/mol. For the same substance, the ΔG (TgAMA1; HBS pH 7.5) was -7.7 kcal/mol, the Kd (TgAMA1; HBS pH 7.5, rounded value, read-out: affinity (Kd)) was 2.2 µM and the “Molar Ratio (RON2/AMA1)” value (TgAMA1; HBS pH 7.5, single experiment) was 1.17 ± 0.02. For the same substance, the ΔH (TgAMA1; HBS pH 7.5, single experiment) was -4.7 ± 0.1 kcal/mol, the “binding to TgAMA1ΔDIIloop (in words)” value (TgAMA1ΔDIIloop [3]) was “bound both TgRON2D3 and EtRON2D3 with high affinity; also recorded: significantly tighter binding to TgAMA1ΔDIIloop relative to TgAMA1” and the “binding to TgAMA1ΔDIIloop (in words)” value (TgAMA1ΔDIIloop [3]; listed as EtRON2) was “bound with high affinity to TgAMA1ΔDIIloop”. For the same substance, the Kd (TgAMA1ΔDIIloop [3]) was 0.008 ± 0.0031 µM, the “-TΔS” value (TgAMA1ΔDIIloop [3]) was -0.1 kcal/mol and the ΔG (TgAMA1ΔDIIloop [3]) was -11.1 kcal/mol. For the same substance, the “Molar Ratio (RON2/AMA1)” value (TgAMA1ΔDIIloop [3]) was 0.96 ± 0.01, the ΔH (TgAMA1ΔDIIloop [3]) was -11.0 ± 0.1 kcal/mol and the “fold tighter binding to TgAMA1ΔDIIloop relative to TgAMA1” value (TgAMA1ΔDIIloop [3]; ratio of ITC Kd, TgAMA1 (2.2 μM) vs TgAMA1ΔDIIloop (8.0 nM)) was “approximately 275 fold”. For the same substance, the “native PAGE migration / retention on TgAMA1ΔDIIloop” value (TgAMA1ΔDIIloop [4]) was “altered migration for the sample co-purified with EtRON2D3”.
With “PfRON2D3 thioredoxin fusion (Plasmodium falciparum RON2 domain 3 peptide)” the Kd [1] was 1.4 µM and the stoichiometry N [1] was 1.
For “TRX: thioredoxin, injected as a negative control”, the “binding of TRX negative control” value (TgAMA1 or TgAMA1ΔDIIloop) was “no detectable binding”.
Substance “TgRON2D3 thioredoxin fusion (Toxoplasma gondii RON2 domain 3 peptide) (from UniProt B6KV60 1297-1332)” has a Kd [2] of under 0.0058 µM.
In the case of “TgRON2D3: RON2 domain 3 peptide of T. gondii, thioredoxin fusion produced in E. coli BL21 (DIVQHMEDIGGAPPVSCVTNEILGVTCAPQAIAKAT; cysteine pairing not given here; also: thioredoxin fusion, end not given here, His tag, end not given here)”, the “binding to TgAMA1 (in words)” value (TgAMA1; HBS pH 7.5) is reported as “bound both TgRON2D3 and EtRON2D3 but only the former with high affinity”, the Kd (TgAMA1; HBS (20 mM HEPES pH 7.5, 150 mM NaCl), one-site model, single experiment, representative of at least two independent experiments, read-out: Kd) is reported as 0.0058 ± 0.0028 µM and the “-TΔS” value (TgAMA1; HBS pH 7.5) is reported as 5.9 kcal/mol. For the same substance, the ΔG (TgAMA1; HBS pH 7.5) was -11.2 kcal/mol, the “Molar Ratio (RON2/AMA1)” value (TgAMA1; HBS pH 7.5, single experiment) was 1.00 ± 0.01 and the ΔH (TgAMA1; HBS pH 7.5, single experiment) was -17.1 ± 0.2 kcal/mol. The “binding to TgAMA1ΔDIIloop (in words)” value (TgAMA1ΔDIIloop [3]) was “bound both TgRON2D3 and EtRON2D3 with high affinity”, the Kd (TgAMA1ΔDIIloop [3]) was 0.0036 ± 0.003 µM and the “-TΔS” value (TgAMA1ΔDIIloop [3]) was 10.6 kcal/mol. The ΔG (TgAMA1ΔDIIloop [3]) was -11.6 kcal/mol, the “Molar Ratio (RON2/AMA1)” value (TgAMA1ΔDIIloop [3]) was 1.01 ± 0.01 and the ΔH (TgAMA1ΔDIIloop [3]) was -22.2 ± 0.2 kcal/mol.
In the case of “TgRON2L1D3 thioredoxin fusion (Toxoplasma gondii RON2L1 domain 3 peptide)”, the Kd [1] is reported as 46 µM and the stoichiometry N [1] is reported as 1.
Substance “TgRON2L2D3 thioredoxin fusion (Toxoplasma gondii RON2L2 domain 3 peptide)” has a Kd [1] of 6 µM and a stoichiometry N [1] of 1.
